These are literature values, as cited in patent US6306899A (priority 1999, dated 2001).

The test system of one data set is HBV. The settings on record: background; in words; cited from earlier work.
For data set [1] the following is noted: background; in words; cited from earlier work.

With `Nc1ncnc2c1ncn2[C@@H]1O[C@H](COP(=O)(O)O)[C@@H](O)[C@@H]1O` [ara-AMP], the “effect on HBV infection” value in the data set with HBV is on record as “transiently suppress HBV infection”. In data set [1], the toxicity result is given as “extremely toxic”.
For `Nc1ccn([C@H]2CC[C@@H](CO)O2)c(=O)n1` [2',3'-dideoxycytidine (ddC), 2',3'-dideoxycytidine], in data set [1], the toxicity result was “high toxicity on the central and peripheral nervous system”.
Turning to `Nc1nc2c(ncn2CCC(CO)CO)c(=O)[nH]1` [PCV], the “effect on HBV infection” value in the data set with HBV was “recurrence of HBV after a period of treatment”.
